According to ChEMBL document CHEMBL5352447, “Development of [1,2]oxazoloisoindoles tubulin polymerization inhibitors: Further chemical modifications and potential therapeutic effects against lymphomas” (Eur J Med Chem, 2022):

Tests used:
SK-MEL-5 = experiment: Antiproliferative activity against human SK-MEL-5 cells assessed as cell growth inhibition incubated for 72 hrs by MTT assay; type: functional
OVCAR-5 = experiment: Antiproliferative activity against human OVCAR-5 cells assessed as cell growth inhibition incubated for 72 hrs by MTT assay; type: functional
MCF7 = experiment: Antiproliferative activity against human MCF7 cells assessed as cell growth inhibition incubated for 72 hrs by MTT assay; type: functional
UO-31 = experiment: Antiproliferative activity against human UO-31 cells assessed as cell growth inhibition incubated for 72 hrs by MTT assay; type: functional
SN12C = experiment: Antiproliferative activity against human SN12C cells assessed as cell growth inhibition incubated for 72 hrs by MTT assay; type: functional
SK-MEL-28 = experiment: Antiproliferative activity against human SK-MEL-28 cells assessed as cell growth inhibition incubated for 72 hrs by MTT assay; type: functional
Hs-578T = experiment: Antiproliferative activity against human Hs-578T cells assessed as cell growth inhibition incubated for 72 hrs by MTT assay; type: functional
SF-268 = experiment: Antiproliferative activity against human SF-268 cells assessed as cell growth inhibition incubated for 72 hrs by MTT assay; type: functional
[1] = Antiproliferative activity against human HBL1 cells assessed as proliferating cells at 1 uM incubated for 72 hrs by MTT assay relative to control; type: functional
SW-620 = experiment: Antiproliferative activity against human SW620 cells assessed as cell growth inhibition incubated for 72 hrs by MTT assay; type: functional
SK-MEL-2 = experiment: Antiproliferative activity against human SK-MEL-2 cells assessed as cell growth inhibition incubated for 72 hrs by MTT assay; type: functional
NCI-H23 = experiment: Antiproliferative activity against human NCI-H23 cells assessed as cell growth inhibition incubated for 72 hrs by MTT assay; type: functional
786-0 = experiment: Antiproliferative activity against human 786-0 cells assessed as cell growth inhibition incubated for 72 hrs by MTT assay; type: functional
UACC-257 = experiment: Antiproliferative activity against human UACC-257 cells assessed as cell growth inhibition incubated for 72 hrs by MTT assay; type: functional
SNB-19 = experiment: Antiproliferative activity against human SNB-19 cells assessed as cell growth inhibition incubated for 72 hrs by MTT assay; type: functional
NCI-H460 = experiment: Antiproliferative activity against human NCI-H460 cells assessed as cell growth inhibition incubated for 72 hrs by MTT assay; type: functional
UACC-62 = experiment: Antiproliferative activity against human UACC-62 cells assessed as cell growth inhibition incubated for 72 hrs by MTT assay; type: functional
MDA-MB-468 = experiment: Antiproliferative activity against human MDA-MB-468 cells assessed as cell growth inhibition incubated for 72 hrs by MTT assay; type: functional
HCT-15 = experiment: Antiproliferative activity against human HCT-15 cells assessed as cell growth inhibition incubated for 72 hrs by MTT assay; type: functional
SR = experiment: Antiproliferative activity against human SR cells assessed as cell growth inhibition incubated for 72 hrs by MTT assay; type: functional
U-251 = experiment: Antiproliferative activity against human U-251 cells assessed as cell growth inhibition incubated for 72 hrs by MTT assay; type: functional
Malme-3M = experiment: Antiproliferative activity against human Malme-3M cells assessed as cell growth inhibition incubated for 72 hrs by MTT assay; type: functional
CCRF-CEM = experiment: Antiproliferative activity against human CCRF-CEM cells assessed as cell growth inhibition incubated for 72 hrs by MTT assay; type: functional
HCT-116 = experiment: Antiproliferative activity against human HCT-116 cells assessed as cell growth inhibition incubated for 72 hrs by MTT assay; type: functional
M14 = experiment: Antiproliferative activity against human M14 cells assessed as cell growth inhibition incubated for 72 hrs by MTT assay; type: functional
OVCAR-8 = experiment: Antiproliferative activity against human OVCAR-8 cells assessed as cell growth inhibition incubated for 72 hrs by MTT assay; type: functional
SU-DHL10 [2] = experiment: Antiproliferative activity against human SU-DHL-10 cells assessed as inhibition of cell proliferation incubated for 72 hrs by MTT assay; type: functional, cell-based; conditions: SU-DHL10, 72 h
EKVX = experiment: Antiproliferative activity against human EKVX cells assessed as cell growth inhibition incubated for 72 hrs by MTT assay; type: functional
NCI-H322M = experiment: Antiproliferative activity against human NCI-H322M cells assessed as cell growth inhibition incubated for 72 hrs by MTT assay; type: functional
T47D = experiment: Antiproliferative activity against human T47D cells assessed as cell growth inhibition incubated for 72 hrs by MTT assay; type: functional
SNB-75 = experiment: Antiproliferative activity against human SNB-75 cells assessed as cell growth inhibition incubated for 72 hrs by MTT assay; type: functional
DU-145 = experiment: Antiproliferative activity against human DU-145 cells assessed as cell growth inhibition incubated for 72 hrs by MTT assay; type: functional
[3] = Antiproliferative activity against human MINO cells assessed as proliferating cells at 1 uM incubated for 72 hrs by MTT assay relative to control; type: functional
TK-10 = experiment: Antiproliferative activity against human TK-10 cells assessed as cell growth inhibition incubated for 72 hrs by MTT assay; type: functional
HT-29 = experiment: Antiproliferative activity against human HT-29 cells assessed as cell growth inhibition incubated for 72 hrs by MTT assay; type: functional
BT-549 = experiment: Antiproliferative activity against human BT-549 cells assessed as cell growth inhibition incubated for 72 hrs by MTT assay; type: functional
MDA-MB-435 = experiment: Antiproliferative activity against human MDA-MB-435 cells assessed as cell growth inhibition incubated for 72 hrs by MTT assay; type: functional
SU-DHL10 [4] = experiment: Antiproliferative activity against human SU-DHL-10 cells assessed as proliferating cells at 1 uM incubated for 72 hrs by MTT assay relative to control; type: functional
SF-539 = experiment: Antiproliferative activity against human SF-539 cells assessed as cell growth inhibition incubated for 72 hrs by MTT assay; type: functional
SF-295 = experiment: Antiproliferative activity against human SF-295 cells assessed as cell growth inhibition incubated for 72 hrs by MTT assay; type: functional
HOP-92 = experiment: Antiproliferative activity against human HOP-92 cells assessed as cell growth inhibition incubated for 72 hrs by MTT assay; type: functional
VL51 = experiment: Antiproliferative activity against human VL51 cells assessed as proliferating cells at 1 uM incubated for 72 hrs by MTT assay relative to control; type: functional
ACHN = experiment: Antiproliferative activity against human ACHN cells assessed as cell growth inhibition incubated for 72 hrs by MTT assay; type: functional
SK-OV-3 = experiment: Antiproliferative activity against human SK-OV-3 cells assessed as cell growth inhibition incubated for 72 hrs by MTT assay; type: functional
RPMI-8226 = experiment: Antiproliferative activity against human RPMI-8226 cells assessed as cell growth inhibition incubated for 72 hrs by MTT assay; type: functional
A549 = experiment: Antiproliferative activity against human A549 cells assessed as cell growth inhibition incubated for 72 hrs by MTT assay; type: functional
RXF 393 = experiment: Antiproliferative activity against human RXF 393 cells assessed as cell growth inhibition incubated for 72 hrs by MTT assay; type: functional

## COc1ccc(Cn2cc3c(c2-c2cc(OC)c(OC)c(OC)c2)CCc2c(CN4CCCC4)noc2-3)cc1
SK-MEL-5
  GI50: 1020 nM
OVCAR-5
  GI50: 3200 nM
MCF7
  GI50: 330 nM
UO-31
  GI50: 1160 nM
SN12C
  GI50: 4430 nM
SK-MEL-28
  GI50: 11500 nM
Hs-578T
  GI50: 1800 nM
SF-268
  GI50: 3150 nM
[1]
  Activity: 30.6%
SW-620
  GI50: 540 nM
SK-MEL-2
  GI50: 13200 nM
NCI-H23
  GI50: 2800 nM
786-0
  GI50: 1000 nM
UACC-257
  GI50: 17000 nM
SNB-19
  GI50: 780 nM
NCI-H460
  GI50: 570 nM
UACC-62
  GI50: 550 nM
MDA-MB-468
  GI50: 280 nM
HCT-15
  GI50: 480 nM
SR
  GI50: 360 nM
U-251
  GI50: 540 nM
Malme-3M
  GI50: 500 nM
CCRF-CEM
  GI50: 730 nM
HCT-116
  GI50: 470 nM
M14
  GI50: 580 nM
OVCAR-8
  GI50: 3270 nM
SU-DHL10 [2]
  IC50: 700 nM
EKVX
  GI50: 2110 nM
NCI-H322M
  GI50: 5550 nM
T47D
  GI50: 2650 nM
SNB-75
  GI50: 670 nM
DU-145
  GI50: 4000 nM
[3]
  Activity: 8.7%
TK-10
  GI50: 23400 nM
HT-29
  GI50: 400 nM
BT-549
  GI50: 2470 nM
MDA-MB-435
  GI50: 240 nM
SU-DHL10 [4]
  Activity: 0.3%
SF-539
  GI50: 750 nM
SF-295
  GI50: 460 nM
HOP-92
  GI50: 1350 nM
VL51
  Activity: 57%
ACHN
  GI50: 630 nM
SK-OV-3
  GI50: 6700 nM
RPMI-8226
  GI50: 1270 nM
A549
  GI50: 1330 nM
RXF 393
  GI50: 890 nM

## COc1ccc(Cn2cc3c(c2-c2cc(OC)c(OC)c(OC)c2)CCc2c(CN4CCOCC4)noc2-3)cc1
SK-MEL-5
  GI50: 1860 nM
MCF7
  GI50: 360 nM
UO-31
  GI50: 760 nM
SN12C
  GI50: 3810 nM
SK-MEL-28
  GI50: > 100000 nM
Hs-578T
  GI50: 500 nM
SF-268
  GI50: 780 nM
[1]
  Activity: 33.9%
SW-620
  GI50: 430 nM
SK-MEL-2
  GI50: 550 nM
NCI-H23
  GI50: 2170 nM
786-0
  GI50: 770 nM
UACC-257
  GI50: 1000 nM
SNB-19
  GI50: 860 nM
NCI-H460
  GI50: 520 nM
UACC-62
  GI50: 610 nM
MDA-MB-468
  GI50: 340 nM
HCT-15
  GI50: 510 nM
SR
  GI50: 380 nM
U-251
  GI50: 880 nM
Malme-3M
  GI50: 500 nM
CCRF-CEM
  GI50: 1260 nM
HCT-116
  GI50: 500 nM
M14
  GI50: 560 nM
OVCAR-8
  GI50: 1920 nM
SU-DHL10 [2]
  IC50: 500 nM
EKVX
  GI50: 1400 nM
T47D
  GI50: > 100000 nM
SNB-75
  GI50: 310 nM
DU-145
  GI50: 1990 nM
[3]
  Activity: 5.3%
TK-10
  GI50: > 100000 nM
HT-29
  GI50: 640 nM
BT-549
  GI50: 1340 nM
MDA-MB-435
  GI50: 250 nM
SU-DHL10 [4]
  Activity: 0.7%
SF-539
  GI50: 440 nM
SF-295
  GI50: 470 nM
HOP-92
  GI50: 900 nM
VL51
  Activity: 53.3%
ACHN
  GI50: 630 nM
SK-OV-3
  GI50: 970 nM
RPMI-8226
  GI50: 770 nM
A549
  GI50: 1130 nM
RXF 393
  GI50: 290 nM
